{
  "source": "patent US9388208B2",
  "about": "“Pyrrolo[1,2-f][1,2,4]triazines useful for treating respiratory syncitial virus infections” (Gilead Sciences, Inc., priority 2013, dated 2016)",
  "key": {"HEp-2 cells": {"test_system": "HEp-2 cells", "test": "Cytotoxicity assay in HEp-2 cells", "assay_type": "cell-based", "conditions": "uninfected HEp-2 cells, 4 days, CellTiter Glo", "summary_of_the_method": "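Uninfected HEp-2 cells added to prediluted compound, incubated 4 days, viability read by CellTiter Glo luminescence. Untreated cells set 100% and 2 uM puromycin 0% viability; CC50 fitted by non-linear regression as concentration reducing viability by 50%.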"}, "RSV strain A2": {"test_system": "RSV strain A2", "test": "Anti-RSV activity, infectious cytopathic cell protection assay in HEp-2 cells", "assay_type": "cell-based, Respiratory Syncytial Virus (RSV)", "conditions": "human respiratory syncytial virus, HEp-2, 96 h", "summary_of_the_method": "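Near-confluent HEp-2 cells at 50,000/ml infected with titrated RSV A2 and dispensed onto 3-fold compound dilutions, then incubated 4 days at 37° C. Protection from virus-induced cytopathic effect read as CellTiter-Glo luminescence, normalized to 0% and 100% inhibition controls; EC50 by non-linear regression.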"}, "MT-4 cells": {"test_system": "MT-4 cells", "test": "Cytotoxicity assay in MT-4 cells", "assay_type": "cell-based", "conditions": "5 days, Cell-Titer Glo", "summary_of_the_method": "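Compounds in 3-fold serial dilution (26 nM to 530 μM, 100× concentrations in medium) incubated in quadruplicate with 2×10^3 MT-4 cells for 5 days at 37° C; viability by CellTiter-Glo luminescence. CC50 from 4-parameter fit (Top/Bottom fixed 100%/0%), mean±SD of 3 independent experiments.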"}},
  "note": "pEC50: −log10 of the molar value.",
  "data": [
    {"compound": "CC(C)(C)C(=O)SCCOP(=O)(OCCSC(=O)C(C)(C)C)OC[C@@]1(C#N)O[C@@H](c2ccc3c(N)ncnn23)[C@H](O)[C@@H]1O", "note": "[Example 10, S,S′-2,2′-((((2R,3S,4R,5S)-5-(4-aminopyrrolo[1,2-f][1,2,4]triazin-7-yl)-2-cyano-3,4-dihydroxytetrahydrofuran-2-yl)methoxy)phosphoryl)bis(oxy)bis(ethane-2,1-diyl)bis(2,2-dimethylpropanethioate)]", "values": [
      {"measurement": "CC50", "setting": "HEp-2 cells", "value": 39, "unit": "µM"},
      {"measurement": "pEC50", "setting": "RSV strain A2", "value": 6.00},
      {"measurement": "CC50", "setting": "MT-4 cells", "value": 7.3, "unit": "µM"}
    ]}
  ]
}
